Assay results as given in ChEMBL document CHEMBL1806355, “Synthesis and evaluation of 1-cyclopropyl-2-thioalkyl-8-methoxy fluoroquinolones” (2011).
In brackets after ≈: the same amount, converted by molar mass. Activity calls are given as the source filed them. The calls are words filed in the database; no cut-off is given here.

Tests used:
[1] = Inhibition of DNA gyrase
Escherichia coli [2] = experiment: Antibacterial activity against tolC knockout Escherichia coli KD1397; assay type: functional
[3] = tested on: Mycolicibacterium smegmatis; experiment: Antibacterial activity against Mycobacterium smegmatis KD1163; assay type: functional
Escherichia coli [4] = experiment: Antibacterial activity against Escherichia coli KD65; assay type: functional

inhibition [1]	SMILES	MIC (Escherichia coli [2])	MIC [3]	MIC (Escherichia coli [4])
Active	CCSc1c(C(=O)O)c(=O)c2cc(F)c(N3C[C@@H]4CCCN[C@@H]4C3)c(OC)c2n1C1CC1	> 50 µg/mL	50 µg/mL (≈ 108 µM)	> 50 µg/mL
Active	CCSc1c(C(=O)O)c(=O)c2cc(F)c(N3CCNCC3)c(OC)c2n1C1CC1	12.5 µg/mL (≈ 29.7 µM)	> 200 µg/mL	200 µg/mL (≈ 475 µM)
	COc1c(N2C[C@@H]3CCCN[C@@H]3C2)c(F)cc2c(=O)ccn(C3CC3)c12	100 µg/mL (≈ 280 µM)	> 200 µg/mL	> 200 µg/mL
	O=C(O)c1cn(C2CC2)c2cc(N3CCNCC3)c(F)cc2c1=O [CIPROFLOXACIN]		0.156 µg/mL (≈ 0.471 µM)	0.04 µg/mL (≈ 0.121 µM)
	O=c1ccn(C2CC2)c2cc(N3CCNCC3)c(F)cc12	1.56 µg/mL (≈ 5.43 µM)	6.25 µg/mL (≈ 21.8 µM)	50 µg/mL (≈ 174 µM)
	CC1Sc2cc(=O)c3cc(F)c(N4CCNCC4)cc3n21 (stereo unspecified) [DESCARBOXYULIFLOXACIN]	200 µg/mL (≈ 655 µM)	200 µg/mL (≈ 655 µM)	> 200 µg/mL
Active	COc1c(N2C[C@@H]3CCCN[C@@H]3C2)c(F)cc2c(=O)cc(SC(C)C)n(C3CC3)c12	50 µg/mL (≈ 116 µM)	50 µg/mL (≈ 116 µM)	> 50 µg/mL
	CC1Sc2c(C(=O)O)c(=O)c3cc(F)c(N4CCNCC4)cc3n21 (stereo unspecified) [ULIFLOXACIN]	0.016 µg/mL (≈ 0.0458 µM)	3.13 µg/mL (≈ 8.96 µM)	0.062 µg/mL (≈ 0.177 µM)
	COc1c(N2C[C@@H]3CCCN[C@@H]3C2)c(F)cc2c(=O)c(C(=O)O)cn(C3CC3)c12 [MOXIFLOXACIN]	0.004 µg/mL (≈ 0.00996 µM)	0.08 µg/mL (≈ 0.199 µM)	0.156 µg/mL (≈ 0.389 µM)
Active	CCSc1cc(=O)c2cc(F)c(N3C[C@@H]4CCCN[C@@H]4C3)c(OC)c2n1C1CC1	100 µg/mL (≈ 239 µM)	> 200 µg/mL	> 200 µg/mL

SMILES	inhibition [1]	MIC (Escherichia coli [2])	MIC [3]	MIC (Escherichia coli [4])
COc1c(N2CCNCC2)c(F)cc2c(=O)cc(SC(C)C)n(C3CC3)c12	Active	> 50 µg/mL	> 50 µg/mL	> 50 µg/mL
CCSc1cc(=O)c2cc(F)c(N3CCNCC3)c(OC)c2n1C1CC1	Active	25 µg/mL (≈ 66.2 µM)	> 50 µg/mL	> 50 µg/mL
